{"source": "patent US9598441B2", "about": "“Therapeutic compounds and methods” (Wayne State University, priority 2011, dated 2017)", "target": "T1, endogenous interaction between CARP-1 and APC-2 in MDA-MB-468 HBC cells (Homo sapiens, UniProt Q8IX12)", "T1 construct": "endogenous in cells; host or cells: MDA-MB-468 human breast cancer cells", "T1 sequence (Q8IX12 1-1150)": "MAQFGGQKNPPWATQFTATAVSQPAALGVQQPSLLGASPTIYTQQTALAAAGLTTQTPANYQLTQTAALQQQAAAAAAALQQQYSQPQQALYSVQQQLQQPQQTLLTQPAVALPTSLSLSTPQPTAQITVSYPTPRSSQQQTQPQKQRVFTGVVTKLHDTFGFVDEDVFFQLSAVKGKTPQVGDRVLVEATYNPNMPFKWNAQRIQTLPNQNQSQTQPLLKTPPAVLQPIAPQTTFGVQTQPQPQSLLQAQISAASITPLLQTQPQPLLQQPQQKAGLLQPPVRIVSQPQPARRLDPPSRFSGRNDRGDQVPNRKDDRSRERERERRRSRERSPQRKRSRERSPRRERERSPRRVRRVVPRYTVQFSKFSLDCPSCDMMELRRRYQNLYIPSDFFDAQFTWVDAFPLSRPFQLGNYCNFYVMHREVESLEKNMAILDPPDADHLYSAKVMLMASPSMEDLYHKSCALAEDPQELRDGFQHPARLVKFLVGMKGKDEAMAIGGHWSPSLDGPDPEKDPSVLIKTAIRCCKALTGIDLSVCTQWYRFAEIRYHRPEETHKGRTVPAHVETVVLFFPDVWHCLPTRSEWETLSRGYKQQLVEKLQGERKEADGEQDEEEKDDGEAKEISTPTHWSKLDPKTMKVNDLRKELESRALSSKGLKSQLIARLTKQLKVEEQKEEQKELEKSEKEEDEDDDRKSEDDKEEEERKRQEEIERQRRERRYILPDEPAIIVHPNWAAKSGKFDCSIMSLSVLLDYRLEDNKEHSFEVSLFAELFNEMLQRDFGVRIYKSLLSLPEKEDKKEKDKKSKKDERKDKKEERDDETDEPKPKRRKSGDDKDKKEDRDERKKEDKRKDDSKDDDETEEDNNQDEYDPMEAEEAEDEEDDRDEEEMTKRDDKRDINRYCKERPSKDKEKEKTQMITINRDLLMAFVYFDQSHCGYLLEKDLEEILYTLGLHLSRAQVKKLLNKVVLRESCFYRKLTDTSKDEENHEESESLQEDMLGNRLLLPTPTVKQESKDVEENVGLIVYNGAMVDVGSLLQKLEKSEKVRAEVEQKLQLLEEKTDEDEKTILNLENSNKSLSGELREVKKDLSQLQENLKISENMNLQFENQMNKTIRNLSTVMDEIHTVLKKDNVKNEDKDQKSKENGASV", "test": "IP-WB of endogenous CARP-1/APC-2 interaction in treated cells", "type": "cell-based", "conditions": "escalating doses, 12 h", "experimental": "FIGS. 2A-2D: Identification of small molecular antagonists of CARP-1 binding with APC-2. 2A, FP assay for CARP-1-APC-2 binding. Increasing concentrations of fluorescein-tagged A-epitope peptide [CARP-1 (951-980)] were incubated with the indicated quantities of the Gst-APC-2(685-754) proteins in assay buffer containing 0.01% triton-X100. Gst-NEMO (221-317) was included as a negative control. mP, millipolarization units. 2B, chemical structures of inhibitors of CARP-1 binding with APC-2 identified from HTS. CFM, CARP-1 Functional Mimetic; CFM-1, (Z)-5-(5-bromo-7-methyl-2-oxoindolin-3-ylidene)-2-thioxothiazolidin-4-one; CFM-4,1-(2-chlorobenzyl)-5′-phenyl-3′H-spiro[indoline-3,2′-[1,3,4]thiadiazol]-2-one; CFM-5,5-bromo-1-phenethyl-5′-phenyl-3′H-spiro[indoline-3,2′-[1,3,4]thiadiazol]-2-one. 2C, CFM-4 and CFM-5 bind CARP-1. […] The complexes were analyzed by SDS-PAGE followed by WB with the noted antibodies. […] Immunoprecipitates or the respective cell lysates were analyzed by WB with noted antibodies as in FIG. 1A. […]\nLogarithmically growing cells were either untreated or treated with different agents for various time periods. […] The cell growth inhibition was assessed by using MTT assay. […] The assessment of the live cells was derived by measuring the absorbance of the converted dye at wavelength of 570 nm. […]", "data": [{"smiles": "O=C1N(Cc2ccccc2Cl)c2ccccc2C12NN=C(c1ccccc1)S2", "note": "(stereo not shown) [CFM-4, 1-(2-chlorobenzyl)-5′-phenyl-3′H-spiro[indoline-3,2′-[1,3,4]thiadiazol]-2-one]", "values": [{"measurement": "Binding of CARP-1 with APC-2 in cells (IP-WB)", "result": "declined in the presence of CFM-4 in a dose-dependent manner"}]}]}
